Consider one substance from patent publication US10695425B2, “Methods for treating and/or limiting development of diabetes in subjects with amyotrophic lateral sclerosis” (Biocrine AB, priority 2015, dated 2020).

This assay relates to αTC1-6 cells. Briefly: K+ depolarization-induced [Ca2+]i response in αTC1-6 cells (fura-2). To be noted: αTC1-6 cells pre-exposed to specific Ca2+ channel blocker. In kind it is cell-based, mouse.

Protocol: A glucose concentration of 11 mM was used for islet stimulation. After loading, islets and cells on the glass coverslips were transferred to an open perifusion chamber maintained at 37° C. and [Ca^2+]i measured as the 340/380 nm ratio. The light source was equipped with a xenon arc lamp and an integrated shutter (Lambda DG-4, Sutter instrument company), and coupled to the microscope (Olympus ix 71) via a liquid light guide. The 16-bit grayscale images with a binning of 1×1 were captured every 1 s (exposure time ranged from 100 to 300 ms) with a cooled EM-CCD camera (ImagEM X2, Hamamatsu). The camera and shutter were controlled by METAFLUOR® (Molecular Devices) software, which was also used for analysis. Cells with bright [Ca^2+]i signal defined the regions of interest (ROIs). ROI signals were calculated by subtracting background noise signal.

Turning to w-agatoxin TK, the “blocker-sensitive share of K+ depolarization-induced [Ca2+]i increase” value was “considerable number”.
